Data on 42 compounds can be found in PMC6627609, “Targeting Quorum Sensing: High-Throughput Screening to Identify Novel LsrK Inhibitors” (International Journal of Molecular Sciences, 2019).

Structures can show the parent of a compound that is named as a salt.

This experiment addresses LsrK (Salmonella typhimurium, UniProt Q8ZKQ6). Put plainly: biochemical. The format is biochemical, S. typhimurium. Conditions: for Inhibition (%): 50 µM.

Sequence of LsrK (Q8ZKQ6 whole entry): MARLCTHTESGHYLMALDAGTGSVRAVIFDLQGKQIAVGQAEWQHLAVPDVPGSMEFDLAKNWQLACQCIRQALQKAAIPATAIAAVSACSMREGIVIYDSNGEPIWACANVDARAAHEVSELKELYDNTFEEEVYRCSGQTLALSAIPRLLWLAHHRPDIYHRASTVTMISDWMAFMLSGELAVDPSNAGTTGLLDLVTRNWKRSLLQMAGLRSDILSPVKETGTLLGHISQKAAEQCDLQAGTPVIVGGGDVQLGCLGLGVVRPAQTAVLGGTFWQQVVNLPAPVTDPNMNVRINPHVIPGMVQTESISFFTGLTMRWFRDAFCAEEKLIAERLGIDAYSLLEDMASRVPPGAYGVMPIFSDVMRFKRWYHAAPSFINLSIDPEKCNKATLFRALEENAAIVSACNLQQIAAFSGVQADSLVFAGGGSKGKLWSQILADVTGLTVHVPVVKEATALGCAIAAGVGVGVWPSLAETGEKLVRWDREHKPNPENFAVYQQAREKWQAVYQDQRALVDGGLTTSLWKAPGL

With `O=C([O-])CN(CCN(CC(=O)[O-])CC(=O)O)CC(=O)[O-].[Na+].[Na+].[Na+]` [TRISODIUM ETHYLENEDIAMINE TETRACETATE], the “Inhibition (%)” value is reported as 1.

`Cc1c(C)c2c(c(C)c1O)CCC(C)(C(=O)O)O2` (stereo not drawn) [TROLOX]: the inhibition at 50 µM is 0%.

Regarding `COc1cc2c3cc1Oc1cc(ccc1O)C[C@@H]1c4c(cc(OC)c(O)c4Oc4ccc(cc4)C[C@@H]3N(C)CC2)CC[N+]1(C)C.Cl.O.O.O.O.O.[Cl-]` [TUBOCURARINE CHLORIDE], the “Inhibition (%)” value was determined as 0.

For the compound `CC[C@H]1OC(=O)C[C@@H](O)[C@H](C)[C@@H](O[C@@H]2O[C@H](C)[C@@H](O[C@H]3C[C@@](C)(O)[C@@H](O)[C@H](C)O3)[C@H](N(C)C)[C@H]2O)[C@@H](CC=O)C[C@@H](C)C(=O)/C=C/C(C)=C/[C@@H]1CO[C@@H]1O[C@H](C)[C@@H](O)[C@@H](OC)[C@H]1OC` [TYLOSIN TARTRATE], the “Inhibition (%)” value is 1.

`N[C@@H](Cc1ccc(O)cc1)C(=O)O` [TYROSINE]: the inhibition at 50 µM was 1%.

As for `COC1=C(OC)C(=O)C(C/C=C(\C)CC/C=C(\C)CC/C=C(\C)CC/C=C(\C)CC/C=C(\C)CC/C=C(\C)CC/C=C(\C)CC/C=C(\C)CC/C=C(\C)CCC=C(C)C)=C(C)C1=O` [UBIDECARENEONE], the inhibition at 50 µM stood at 1%.

With `C=CCCCCCCCCC(=O)O` [UNDECYLENIC ACID], the inhibition at 50 µM came to 1%.

Turning to `COc1ccccc1N1CCN(CCCNc2cc(=O)n(C)c(=O)n2C)CC1` [URAPIDIL HYDROCHLORIDE], the inhibition at 50 µM is 1%.

Take `O=c1ccn([C@@H]2O[C@H](COP(=O)([O-])OP(=O)([O-])OP(=O)([O-])O)[C@@H](O)[C@H]2O)c(=O)[nH]1.[Na+].[Na+].[Na+]` [URIDINE TRIPHOSPHATE TRISODIUM]: the “Inhibition (%)” value is listed as 1.

Consider `CC(=O)c1c(O)c(C)c(O)c2c1OC1=CC(=O)C(C(C)=O)C(=O)C12C` (stereo not drawn) [USNIC ACID], for which the inhibition at 50 µM turned out to be 204%.

On to `CCC(C)C(=O)O[C@@H]1C[C@@]2(C)[C@H](c3ccoc3)OC(=O)CC23OC2(C)O[C@]14[C@]1(C)[C@@H](CC(=O)OC)C5(C)CC1(O)[C@](O)(C5OC(=O)C1(C)OC1C)[C@@H](OC(C)=O)[C@]34O2` (stereo partly drawn) [UTILIN], for which the inhibition at 50 µM came to 1%.

Regarding `CC(C)[C@H](N)C(=O)OCCOCn1cnc2c(=O)[nH]c(N)nc21` [VALACYCLOVIR HYDROCHLORIDE], the inhibition at 50 µM was 2%.

Regarding `CCCCC(=O)Oc1ccccc1C(=O)O` [VALERYL SALYCILATE], the inhibition at 50 µM stood at 1%.

With `CCCC(CCC)C(=O)O` [VALPROATE SODIUM], the inhibition at 50 µM turned out to be 0%.

Turning to `CN[C@H](CC(C)C)C(=O)N[C@H]1C(=O)N[C@@H](CC(N)=O)C(=O)N[C@H]2C(=O)N[C@H]3C(=O)N[C@H](C(=O)N[C@H](C(=O)O)c4cc(O)cc(O)c4-c4cc3ccc4O)[C@H](O)c3ccc(c(Cl)c3)Oc3cc2cc(c3O[C@@H]2O[C@H](CO)[C@@H](O)[C@H](O)[C@H]2O[C@H]2C[C@](C)(N)[C@H](O)[C@H](C)O2)Oc2ccc(cc2Cl)[C@H]1O` [VANCOMYCIN HYDROCHLORIDE], the inhibition at 50 µM turned out to be 0%.

As for `CCCc1nc(C)c2c(=O)[nH]c(-c3cc(S(=O)(=O)N4CCN(CC)CC4)ccc3OCC)nn12` [VARDENAFIL HYDROCHLORIDE], the inhibition at 50 µM was 1%.

For `CC(=O)O[C@H]1C[C@@H]2CC[C@@H]3[C@H](CC[C@@]4(C)[C@H]3C[C@H]([N+]3(C)CCCCC3)[C@@H]4OC(C)=O)[C@@]2(C)C[C@@H]1N1CCCCC1` [VECURONIUM BROMIDE], the inhibition at 50 µM turned out to be 1%.

For `COc1ccc(CCN(C)CCCC(C#N)(c2ccc(OC)c(OC)c2)C(C)C)cc1OC` (stereo not drawn) [VERAPAMIL HYDROCHLORIDE], the inhibition at 50 µM stood at 1%.

As for `OC1CCCCC1N1CCC(c2ccccc2)CC1` (stereo not drawn) [VESAMICOL HYDROCHLORIDE], the inhibition at 50 µM is 1%.

For `Nc1ncnc2c1ncn2[C@@H]1O[C@H](CO)[C@@H](O)[C@@H]1O` [VIDARABINE], the inhibition at 50 µM turned out to be 0%.

As to `C=CC(N)CCC(=O)O` (stereo not drawn) [VIGABATRIN], the inhibition at 50 µM came to 1%.

As to `O=c1c2ccccc2oc2ccccc12` [XANTHONE], the inhibition at 50 µM is 1%.

Take `Nc1nc(=O)c2[nH]c(=O)cnc2[nH]1` [XANTHOPTERIN]: the inhibition at 50 µM is 2%.

Take `COc1cc(O)c(C(C)=O)c(OC)c1` [XANTHOXYLIN]: the inhibition at 50 µM stood at 0%.

On to `Cc1cccc(C)c1N=C1NCCCS1` [XYLAZINE], for which the inhibition at 50 µM worked out at 0%.

For `Cc1cc(C(C)(C)C)cc(C)c1CC1=NCCN1` [XYLOMETAZOLINE HYDROCHLORIDE], the inhibition at 50 µM was found to be 1%.

In the case of `O.O=C(O)[C@@H]1[C@H]2C[C@H]3c4[nH]c5ccccc5c4CCN3C[C@@H]2CC[C@@H]1O` [YOHIMBIC ACID HYDRATE], the “Inhibition (%)” value turned out to be 1.

Regarding `Cc1cn([C@H]2C[C@H](N=[N+]=[N-])[C@@H](CO)O2)c(=O)[nH]c1=O` [ZIDOVUDINE [AZT], ZIDOVUDINE], the inhibition at 50 µM worked out at 36%.

For `C=CCCCCCCCCC(=O)[O-].C=CCCCCCCCCC(=O)[O-].[Zn+2]` [ZINC UNDECYLENATE], the “Inhibition (%)” value stood at 21.

In the case of `CC(C)/C(O)=C1/C(=O)O[C@@H](c2ccoc2)[C@]2(C)C(O)[C@@H](O)[C@@]34OC5(C)OC67CC(C)(C(O)[C@]6(O)[C@@H](O)[C@]3(O5)C12)[C@H](CC(=O)O)[C@]74C` (stereo partly drawn) [[…] OF BUSSEIN], the inhibition at 50 µM stood at 1%.

For the compound `CC(C)=CCCC1(C)C=Cc2c(O)c3c(c(CC=C(C)C)c2O1)OC12C(=CCCC1C(C)(C)O[C@@]2(C/C=C(\C)C(=O)O)C(=O)O)C3=O` (stereo partly drawn) [[…]], the inhibition at 50 µM stood at 75%.

With `CC(C)NNC(=O)c1ccncc1` [[…]], the inhibition at 50 µM worked out at 0%.

In the case of `CCCCCC(=O)Cc1cc(O)cc(O)c1C(=O)Oc1cc(CC(=O)CCCCC)c(C(=O)O)c(OC)c1` [[…]], the inhibition at 50 µM was 0%.

`COC(=O)CC1C(C)(C)C(OC(C)=O)[C@@H]2[C@@H](OC(C)=O)[C@]34O[C@@]2(O)[C@]1(C)C3CC[C@]1(C)C4=CC(=O)O[C@H]1c1ccoc1` (stereo partly drawn) [[…]]: the inhibition at 50 µM was 2%.

On to `COc1cc(-c2coc3cc(O)c(OC)c(O)c3c2=O)cc(O)c1OC` [[…]], for which the inhibition at 50 µM came out at 5%.

For `Cc1cc(O)c(C=O)c2c1C(=O)Oc1c(C)c(O)c3c(c1O2)C(O)OC3=O` (stereo not drawn) [[…]], the inhibition at 50 µM was determined as 145%.

For the compound `O=C(/C=C/C(=O)Oc1ccccc1C(=O)O)Oc1ccccc1C(=O)O` [[…]], the inhibition at 50 µM was 2%.

Regarding `N#C/C(=C\c1cccc(O)c1)C(=O)O` [alpha-CYANO-3-HYDROXYCINNAMIC ACID], the inhibition at 50 µM was determined as 2%.

`N#C/C(=C\c1ccc(O)cc1)C(=O)O` [alpha-CYANO-4-HYDROXYCINNAMIC ACID]: the inhibition at 50 µM worked out at 1%.

For `CC(=O)O[C@@H]1CC2C(C)(C)[C@H](O)CC[C@]2(C)C2CC[C@@]3(C)[C@H](c4ccoc4)OC(=O)C4OC43[C@@]21C` (stereo partly drawn) [alpha-DIHYDROGEDUNOL], the “Inhibition (%)” value turned out to be 1.

For the compound `COc1cc2c(cc1OC)[C@@H]1C(=O)c3c(O)cc4c(c3O[C@@H]1CO2)C=CC(C)(C)O4` [alpha-TOXICAROL], the “Inhibition (%)” value is 10.

Turning to `CC1=C(/C=C/C(C)=C/C=C/C(C)=C/C=C/C=C(C)/C=C/C=C(C)/C=C/C2=C(C)CCCC2(C)C)C(C)(C)CCC1` [beta-CAROTENE], the inhibition at 50 µM is 1%.
